Test results from ChEMBL document CHEMBL5053490, “Fusaricide is a Novel Iron Chelator that Induces Apoptosis through Activating Caspase-3” (J Nat Prod, 2021).
The source made the active and inactive calls. The rule behind the calls is not given here.

Columns and labels:
[1] = tested on: NCI-H460; experiment: Induction of apoptosis in human NCI-H460 cells assessed as necrotic cells at 10 uM incubated for 48 hrs by AnnexinV-FITC/propidium iodide staining based flow cytometry (reference value: 1.28%); assay type: functional
[2] = tested on: NCI-H460; experiment: Induction of apoptosis in human NCI-H460 cells assessed as late apoptotic cells at 10 uM incubated for 48 hrs by AnnexinV-FITC/propidium iodide staining based flow cytometry (reference value: 7.54%); assay type: functional
[3] = tested on: NCI-H460; experiment: Induction of apoptosis in human NCI-H460 cells assessed as increase in Bax at 10 uM measured by Western blot analysis; assay type: functional, cell-based
[4] = tested on: NCI-H1299; experiment: Reversal of cell death in human NCI-H1299 cells at up to 40 uM measured after 24 hrs by in presence of FeCl3; assay type: functional, cell-based
[5] = tested on: NCI-H460; experiment: Cytotoxicity against human NCI-H460 cells assessed as reduction in cell viability at 5 uM incubated for 48 hrs by CCK8 assay; assay type: functional, cell-based
[6] = tested on: NCI-H460; experiment: Induction of apoptosis in human NCI-H460 cells assessed as viable cells at 10 uM incubated for 36 hrs by AnnexinV-FITC/propidium iodide staining based flow cytometry (reference value: 90.4%); assay type: functional; settings: read-out: Activity
[7] = tested on: NCI-H460; experiment: Induction of apoptosis in human NCI-H460 cells assessed as late apoptotic cells at 10 uM incubated for 12 hrs by AnnexinV-FITC/propidium iodide staining based flow cytometry (reference value: 7.54%); assay type: functional
[8] = tested on: NCI-H460; experiment: Cytotoxicity against human NCI-H460 cells assessed as reduction in cell viability incubated for 24 hrs by CCK8 assay; assay type: functional, cell-based; settings: NCI-H460, 24 h
[9] = tested on: NCI-H460; experiment: Induction of cell cycle arrest in human NCI-H460 cells assessed as accumulation at sub G2/M phase at 10 uM after 12 hrs by flow cytometric analysis (reference value: 9.8%); assay type: functional
[10] = tested on: NCI-H460; experiment: Induction of apoptosis in human NCI-H460 cells assessed as viable cells at 10 uM incubated for 12 hrs by AnnexinV-FITC/propidium iodide staining based flow cytometry (reference value: 90.4%); assay type: functional; settings: read-out: Activity
[11] = tested on: NCI-H460; experiment: Induction of cell cycle arrest in human NCI-H460 cells assessed as decrease in cyclin D1 expression at 10 uM after 24 hrs by Western blot analysis; assay type: functional, cell-based
[12] = tested on: NCI-H460; experiment: Induction of cell cycle arrest in human NCI-H460 cells assessed as accumulation at […] at 10 uM after 24 hrs by flow cytometric analysis (reference value: 25.7%); assay type: functional
[13] = tested on: NCI-H460; experiment: Induction of apoptosis in human NCI-H460 cells assessed as viable cells at 10 uM incubated for 24 hrs by AnnexinV-FITC/propidium iodide staining based flow cytometry (reference value: 90.4%); assay type: functional; settings: read-out: Activity
[14] = tested on: NCI-H460; experiment: Cytotoxicity against human NCI-H460 cells assessed as reduction in cell viability incubated for 48 hrs by CCK8 assay; assay type: functional, cell-based; settings: NCI-H460, 48 h
[15] = tested on: NCI-H460; experiment: Induction of apoptosis in human NCI-H460 cells assessed as decrease in PARP measured upto 48 hrs by Western blot analysis; assay type: functional, cell-based; settings: TDE = time-dependent effect
[16] = tested on: NCI-H460; experiment: Induction of apoptosis in human NCI-H460 cells assessed as early apoptotic cells at 10 uM incubated for 12 hrs by AnnexinV-FITC/propidium iodide staining based flow cytometry (reference value: 0.74%); assay type: functional
[17] = tested on: NCI-H460; experiment: Induction of apoptosis in human NCI-H460 cells assessed as necrotic cells at 10 uM incubated for 36 hrs by AnnexinV-FITC/propidium iodide staining based flow cytometry (reference value: 1.28%); assay type: functional
[18] = tested on: NCI-H460; experiment: Reversal of cell death in human NCI-H460 cells at up to 40 uM measured after 24 hrs by in presence of FeCl3; assay type: functional, cell-based
[19] = tested on: NCI-H460; experiment: Induction of apoptosis in human NCI-H460 cells assessed as viable cells at 10 uM incubated for 48 hrs by AnnexinV-FITC/propidium iodide staining based flow cytometry (reference value: 90.4%); assay type: functional; settings: read-out: Activity
[20] = tested on: NCI-H460; experiment: Induction of apoptosis in human NCI-H460 cells assessed as late apoptotic cells at 10 uM incubated for 24 hrs in presence of FeCl3 by AnnexinV-FITC/propidium iodide staining based flow cytometry (reference value: 6.09%); assay type: functional
[21] = tested on: NCI-H460; experiment: Induction of apoptosis in human NCI-H460 cells assessed as increase in Caspase 3 activity at 10 uM measured by Western blot analysis; assay type: functional, cell-based; settings: time <= 48.0 hrs, TDE = time-dependent effect
[22] = tested on: NCI-H460; experiment: Cytotoxicity against human NCI-H460 cells assessed as cell viability rescue at 10 uM incubated for 24 hrs in presence of Fecl3 by CCK8 assay; assay type: functional, cell-based
[23] = tested on: NCI-H460; experiment: Downregulation of FTH level in human NCI-H460 cells at 10 uM by Western blot analysis; assay type: functional, cell-based
[24] = tested on: NCI-H226; experiment: Cytotoxicity against human NCI-H226 cells assessed as cell viability rescue at 10 uM incubated for 24 hrs in presence of Fecl3 by CCK8 assay; assay type: functional, cell-based
[25] = tested on: NCI-H460; experiment: Induction of morphological changes in human NCI-H460 cells assessed as roughness of cell membrane at 10 uM measured after 24 hrs by Hoechst 33342 staining based assay; assay type: functional
[26] = tested on: NCI-H460; experiment: Effect on labile iron pool in human NCI-H460 cells assessed as […] at 10 uM by calcein-AM staining based flow cytometry analysis relative to control; assay type: functional, cell-based
[27] = tested on: NCI-H460; experiment: Upregulation of TfR1 level in human NCI-H460 cells at 10 uM by Western blot analysis; assay type: functional, cell-based
[28] = tested on: NCI-H460; experiment: Induction of apoptosis in human NCI-H460 cells assessed as early apoptotic cells at 10 uM incubated for 48 hrs by AnnexinV-FITC/propidium iodide staining based flow cytometry (reference value: 0.74%); assay type: functional
[29] = tested on: NCI-H460; experiment: Induction of apoptosis in human NCI-H460 cells assessed as late apoptotic cells at 10 uM incubated for 36 hrs by AnnexinV-FITC/propidium iodide staining based flow cytometry (reference value: 7.54%); assay type: functional
[30] = tested on: NCI-H460; experiment: Induction of cell cycle arrest in human NCI-H460 cells assessed as increase in activated gammaH2AX expression at 10 uM after 24 hrs by Western blot analysis; assay type: functional, cell-based
[31] = tested on: NCI-H460; experiment: Induction of apoptosis in human NCI-H460 cells assessed as viable cells at 10 uM incubated for 24 hrs in presence of FeCl3 by AnnexinV-FITC/propidium iodide staining based flow cytometry (reference value: 89.5%); assay type: functional; settings: read-out: Activity
[32] = tested on: NCI-H460; experiment: Induction of apoptosis in human NCI-H460 cells assessed as necrotic cells at 10 uM incubated for 24 hrs in presence of FeCl3 by AnnexinV-FITC/propidium iodide staining based flow cytometry (reference value: 2.4%); assay type: functional
[33] = tested on: MRC5; experiment: Cytotoxicity against human MRC5 cells up to 100 uM assessed as reduction in cell viability incubated for 48 hrs by CCK8 assay; assay type: cell-based; settings: mrc5, 48 h
[34] = tested on: NCI-H460; experiment: Induction of apoptosis in human NCI-H460 cells assessed as early apoptotic cells at 10 uM incubated for 24 hrs by AnnexinV-FITC/propidium iodide staining based flow cytometry (reference value: 0.74%); assay type: functional
[35] = tested on: NCI-H460; experiment: Induction of apoptosis in human NCI-H460 cells assessed as early apoptotic cells at 10 uM incubated for 36 hrs by AnnexinV-FITC/propidium iodide staining based flow cytometry (reference value: 0.74%); assay type: functional
[36] = tested on: NCI-H460; experiment: Induction of cell cycle arrest in human NCI-H460 cells assessed as accumulation at sub S phase at 10 uM after 12 hrs by flow cytometric analysis (reference value: 25.7%); assay type: functional
[37] = tested on: NCI-H460; experiment: Induction of cell cycle arrest in human NCI-H460 cells assessed as accumulation at sub G0/G1 phase at 10 uM after 12 hrs by flow cytometric analysis (reference value: 64.5%); assay type: functional
[38] = tested on: NCI-H226; experiment: Reversal of cell death in human NCI-H226 cells at up to 40 uM measured after 24 hrs by in presence of FeCl3; assay type: functional, cell-based
[39] = tested on: NCI-H460; experiment: Induction of apoptosis in human NCI-H460 cells assessed as early apoptotic cells at 10 uM incubated for 24 hrs in presence of FeCl3 by AnnexinV-FITC/propidium iodide staining based flow cytometry (reference value: 1.69%); assay type: functional
[40] = tested on: NCI-H460; experiment: Induction of apoptosis in human NCI-H460 cells assessed as increase in cleaved PARP measured upto 48 hrs by Western blot analysis; assay type: functional, cell-based; settings: TDE = time-dependent effect
[41] = tested on: NCI-H460; experiment: Induction of apoptosis in human NCI-H460 cells assessed as late apoptotic cells at 10 uM incubated for 24 hrs by AnnexinV-FITC/propidium iodide staining based flow cytometry (reference value: 7.54%); assay type: functional
[42] = tested on: NCI-H1299; experiment: Cytotoxicity against human NCI-H1299 cells assessed as cell viability rescue at 10 uM incubated for 24 hrs in presence of Fecl3 by CCK8 assay; assay type: functional, cell-based
[43] = tested on: HEK-293T; experiment: Cytotoxicity against human HEK293T cells up to 100 uM assessed as reduction in cell viability incubated for 48 hrs by CCK8 assay; assay type: cell-based
[44] = tested on: NCI-H460; experiment: Induction of morphological changes in human NCI-H460 cells assessed as chromatin condensation at 10 uM measured after 24 hrs by Hoechst 33342 staining based assay; assay type: functional, cell-based
[45] = tested on: NCI-H460; experiment: Induction of cell cycle arrest in human NCI-H460 cells assessed as increase in p-53 expression at 10 uM after 24 hrs by Western blot analysis; assay type: functional, cell-based
[46] = tested on: NCI-H460; experiment: Induction of apoptosis in human NCI-H460 cells assessed as necrotic cells at 10 uM incubated for 24 hrs by AnnexinV-FITC/propidium iodide staining based flow cytometry (reference value: 1.28%); assay type: functional
[47] = tested on: NCI-H460; experiment: Induction of cell cycle arrest in human NCI-H460 cells assessed as accumulation at sub G0/G1 phase at 10 uM after 24 hrs by flow cytometric analysis (reference value: 64.5%); assay type: functional
[48] = tested on: NCI-H460; experiment: Induction of apoptosis in human NCI-H460 cells assessed as necrotic cells at 10 uM incubated for 12 hrs by AnnexinV-FITC/propidium iodide staining based flow cytometry (reference value: 1.28%); assay type: functional
[49] = tested on: NCI-H460; experiment: Induction of cell cycle arrest in human NCI-H460 cells assessed as accumulation at sub G2/M phase at 10 uM after 24 hrs by flow cytometric analysis (reference value: 9.8%); assay type: functional

## CC[C@H]1Oc2ccn(O)c(=O)c2[C@H]2[C@H](C)C[C@H](C)C[C@]12C
[1]
  Activity: 3.4%
[2]
  Activity: 57.9%
[3]
  Activity: Active
[4]
  Activity: Active
[5]
  Activity: Dose-dependent effect
[6]
  viability at 10 µM: 56.1%
[7]
  Activity: 9.5%
[8]
  IC50: 4.94 µM
[9]
  Activity: 2.2%
[10]
  viability at 10 µM: 86.3%
[11]
  Activity: Active
[12]
  Activity: 26%
[13]
  viability at 10 µM: 75.6%
[14]
  IC50: 1.76 µM
[15]
  Activity: Tde
[16]
  Activity: 2.93%
[17]
  Activity: 3.92%
[18]
  Activity: Active
[19]
  viability at 10 µM: 34.2%
[20]
  Activity: 4.43%
[21]
  Activity: Tde
[22]
  Activity: inactive
[23]
  Activity: Active
[24]
  Activity: inactive
[25]
  Activity: Active
[26]
  Activity: Active
[27]
  Activity: Active
[28]
  Activity: 4.51%
[29]
  Activity: 35.7%
[30]
  Activity: Active
[31]
  viability at 10 µM: 93.8%
[32]
  Activity: 1.01%
[33]
  Activity: Toxic
[34]
  Activity: 6.27%
[35]
  Activity: 4.29%
[36]
  Activity: 25.9%
[37]
  Activity: 71.8%
[38]
  Activity: Active
[39]
  Activity: 0.75%
[40]
  Activity: Tde
[41]
  Activity: 15.7%
[42]
  Activity: inactive
[43]
  Activity: Toxic
[44]
  Activity: Active
[45]
  Activity: Active
[46]
  Activity: 2.44%
[47]
  Activity: 73.9%
[48]
  Activity: 1.7%
[49]
  Activity: 0.8%
